# Test results reported in article PMC12198282, “Application of a high-density microelectrode array assay using a 3D human iPSC-derived brain microphysiological system model for in vitro neurotoxicity screening of environmental compounds” (Archives of Toxicology, 2025).
# pEC50: −log10 of the molar value. Read-outs that look alike come from different tables or passages of the source.
# Assays:
# 2D rat cortical cultures = settings: cytotoxicity LDH, cited from earlier work; for hitc CCTE_Shafer_MEA_dev_LDH: rNFA mc5 hit call
# [1] = tested on: human iPSC-derived 3D BrainSpheres; test: BrainSphere MEA assay (HD-MEA, 13-day exposure, concentration-response); type: cell-based; settings: for Difference of minimum potency between BrainSphere MEA assay and rNFA: 5th percentile of AC50 values by chemical, above 0.5 = more potent in the rNFA; for hitc Mean.Spheroid.Burst.Duration / hitc Mean.Spheroid.Burst.ISI / hitc Mean.Spheroid.Burst.Peak.Firing.Rate / hitc Mean.Spheroid.Firing.Rate / hitc Mean.Spheroid.IBI / hitc Mean.Spheroid.Nonburst.ISI / hitc Mean.Spheroid.Spikes.per.Burst / hitc Mean.Spheroid.Spikes.per.Burst.per.Electrode / hitc Spheroid.Burst.Frequency / hitc Spheroid.Spike.Amplitude.90th.Percentile: AUC over 13-day exposure, tcplfit2; for AC50: concentration at 50% maximal activity, Supplement 3 prints it also for curves with hit call 0; for Percent active: metrics active out of the total number of metrics screened; for ACC Mean.Spheroid.Burst.Duration / ACC Mean.Spheroid.Burst.ISI / ACC Mean.Spheroid.Burst.Peak.Firing.Rate / ACC Mean.Spheroid.Firing.Rate / ACC Mean.Spheroid.IBI / ACC Mean.Spheroid.Nonburst.ISI / ACC Mean.Spheroid.Spikes.per.Burst / ACC Mean.Spheroid.Spikes.per.Burst.per.Electrode / ACC Spheroid.Burst.Frequency / ACC Spheroid.Spike.Amplitude.90th.Percentile: tcplfit2 output ACC, activity cutoff in Supplemental Table 1; for Hits: total number of active endpoints out of 10 MEA activity metrics, 13-day exposure; for EC (benchmark response 1.349 SD): 312 h; for hitc Mean.Spheroid.Burst.Duration: key: 1 (active); 0 (inactive); for hitc Mean.Spheroid.Burst.ISI: key: 1 (active); 0 (inactive); for hitc Mean.Spheroid.Burst.Peak.Firing.Rate: key: 1 (active); 0 (inactive); for hitc Mean.Spheroid.Firing.Rate: key: 1 (active); 0 (inactive); for hitc Mean.Spheroid.IBI: key: 1 (active); 0 (inactive); for hitc Mean.Spheroid.Nonburst.ISI: key: 1 (active); 0 (inactive); for hitc Mean.Spheroid.Spikes.per.Burst.per.Electrode: key: 1 (active); 0 (inactive); for hitc Mean.Spheroid.Spikes.per.Burst: key: 1 (active); 0 (inactive); for hitc Spheroid.Burst.Frequency: key: 1 (active); 0 (inactive); for hitc Spheroid.Spike.Amplitude.90th.Percentile: key: 1 (active); 0 (inactive)
# Description: A volume of 1 ml of Tergazyme (1% solution in deionized water) was added to each well of the MaxTwo 6-Well Plate (MaxWell Biosystems) and incubated overnight under constant gyratory shaking (88 RPM) at 37 °C and 5% CO2. The next day, Tergazyme solution was removed, and plates were washed with distilled water and ethanol. After remaining ethanol was evaporated, wells were washed with PBS. Then, 200 µl of Poly-D-Lysine (Gibco, A38904 - 01) was added on top of the electrodes and incubated at 37 °C and 5% CO2 for 3 h (humidified). Poly-D-Lysine was then removed, and wells were coated with 100 µl of 0.1 mg/ml laminin coating solution (Sigma-Aldrich, L2020 - 1 mg) and incubated for 2 h at 37 ℃ and 5% CO2 (humidified). The laminin was removed after incubation. Using a 1 ml micropipette, 1 ml of medium containing BrainSpheres (7 weeks differentiated), approximately 25 BrainSpheres per ml, was plated on top of the HD-MEA chip (Fig. 1A). Afterwards, the plate was placed in an incubator at 37 °C and 5% CO2 and moved in circles to accumulate the BrainSpheres on top of the electrode area (Fig. 1A). The plate was kept in an incubator (humidified) for 2 days to allow attachment of the BrainSpheres with no gyratory shaking of the plates.
# The MaxTwo high-density microelectrode array system (MaxWell Biosystems AG, Zurich, Switzerland) was used to measure neural activity with MaxTwo 6-well plates, where every well includes an integrated chip with 26,400 platinum electrodes arranged in an area of 3.85 × 2.10 mm^2 ([…]) (Muller et al. [2015]). The data were recorded and analyzed with the MaxLab Live Software (version 22.2.22). First, the MaxLab live ActivityScan Assay was used to identify the activity and positioning of the BrainSpheres on the array by scanning all the 26,400 electrodes in 29 configurations in a well (Assay Parameters: Configuration = Full; Recording time per configuration = 60 s (s)). The settings gain = 512, high-pass-filter (HPF): ~ 1 Hz and spike threshold = 5 X root-mean square (RMS) noise were used for all HD-MEA recordings. Circular regions of interest (ROI) were manually selected in the Activity Map where neuronal activity was apparent by an increased activity (Fig. 2). Over the course of the 13-day experiment, the same selected regions and electrodes were measured using the MaxLab Live Network Assay (600 s recording time).
# A custom analysis framework was used to extract the MaxLab Live neuronal metrics for the individual BrainSpheres. For this, electrodes comprising a single ROI (i.e., individual BrainSphere; Fig. 2D) were grouped using distance-based clustering (fcluster method of Scipy library, Python 3.7) and neural metrics were calculated for the clustered electrodes for every ROI separately. Figure 2E presents a raster plot illustrating the activity associated with individual Regions of Interest (ROIs). […] Ten MaxLab Live neural metrics (endpoints) were evaluated from the MaxLab live ActivityScan and Network Assay in this study. See Table 3 for the endpoint definitions, tuned parameters, and activity type (general versus network connectivity).
# The BrainSphere MEA assay measured changes in neural activity during a 13-day chemical exposure. The first recording day of the concentration–response screening protocol (day of exposure (DOE) 0) occurred after 7 weeks of BrainSphere differentiation, 48 h after plating on HD-MEA plates (Fig. 1B). The study included at least three biological replicates (one well per plate) from separate experiments (e.g., three different plates on three different days) and each well included multiple BrainSpheres which were considered technical replicates.
# [2] = tcplfit2 BMD at benchmark response (1.349*SD of baseline controls)
# [3] = top of winning model, response normalized as percent of vehicle control, negative = decrease
compound,measurement,setting,value
Brc1ccc(Oc2ccc(Br)cc2Br)c(Br)c1 [BDE- 47],hitc CCTE_Shafer_MEA_dev_LDH,2D rat cortical cultures,1
same,AC50,"2D rat cortical cultures; read-out: ac50 CCTE_Shafer_MEA_dev_LDH, rNFA mc5",12.3 µM
same,pEC50,"[1]; 5th percentile across active AC50 values per chemical, read-out: Minimum potency",5.09
same,Difference of minimum potency between BrainSphere MEA assay and rNFA,[1],more than 0.5 log10 µM
same,hitc Mean.Spheroid.Burst.Duration,[1],1
same,hitc Mean.Spheroid.Burst.ISI,[1],1
same,hitc Mean.Spheroid.Burst.Peak.Firing.Rate,[1],1
same,hitc Mean.Spheroid.Firing.Rate,[1],1
same,hitc Mean.Spheroid.IBI,[1],0
same,hitc Mean.Spheroid.Nonburst.ISI,[1],0
same,hitc Mean.Spheroid.Spikes.per.Burst,[1],1
same,hitc Mean.Spheroid.Spikes.per.Burst.per.Electrode,[1],1
same,hitc Spheroid.Burst.Frequency,[1],1
same,hitc Spheroid.Spike.Amplitude.90th.Percentile,[1],1
same,AC50,"[1]; listed as BDE-47, read-out: ac50 Mean.Spheroid.Burst.Duration",14.4 µM
same,AC50,"[1]; listed as BDE-47, read-out: ac50 Mean.Spheroid.Burst.Peak.Firing.Rate",9.74 µM
same,AC50,"[1]; listed as BDE-47, read-out: ac50 Mean.Spheroid.Firing.Rate",7.84 µM
same,AC50,"[1]; listed as BDE-47, read-out: ac50 Spheroid.Burst.Frequency",8.92 µM
same,AC50,"[1]; listed as BDE-47, read-out: ac50 Spheroid.Spike.Amplitude.90th.Percentile",13.4 µM
same,AC50,"[1]; listed as BDE−47, read-out: ac50 Mean.Spheroid.Burst.Duration",14 µM
same,AC50,"[1]; listed as BDE−47, read-out: ac50 Mean.Spheroid.Burst.Peak.Firing.Rate",9.7 µM
same,AC50,"[1]; listed as BDE−47, read-out: ac50 Mean.Spheroid.Firing.Rate",7.8 µM
same,AC50,"[1]; listed as BDE−47, read-out: ac50 Spheroid.Burst.Frequency",8.9 µM
same,AC50,"[1]; listed as BDE−47, read-out: ac50 Spheroid.Spike.Amplitude.90th.Percentile",13 µM
same,AC50,[1]; read-out: ac50 Mean.Spheroid.Burst.ISI,13.4 µM
same,AC50,[1]; read-out: ac50 Mean.Spheroid.IBI,45 µM
same,AC50,[1]; read-out: ac50 Mean.Spheroid.Spikes.per.Burst,14.3 µM
same,AC50,[1]; read-out: ac50 Mean.Spheroid.Spikes.per.Burst.per.Electrode,8.93 µM
same,pEC50,"[1]; mean across active AC50 values per chemical, read-out: Mean potency",4.94
same,Percent active,[1],80%
same,BMD Mean.Spheroid.Burst.Duration,[1]; [2],8.9 µM
same,BMD Mean.Spheroid.Burst.ISI,[1]; [2],7.8 µM
same,BMD Mean.Spheroid.Burst.Peak.Firing.Rate,[1]; [2],7.1 µM
same,BMD Mean.Spheroid.Firing.Rate,[1]; [2],7.9 µM
same,BMD Mean.Spheroid.IBI,[1]; [2],34 µM
same,BMD Mean.Spheroid.Nonburst.ISI,[1]; [2],48 µM
same,BMD Mean.Spheroid.Spikes.per.Burst,[1]; [2],12 µM
same,BMD Mean.Spheroid.Spikes.per.Burst.per.Electrode,[1]; [2],7 µM
same,BMD Spheroid.Burst.Frequency,[1]; [2],10 µM
same,BMD Spheroid.Spike.Amplitude.90th.Percentile,[1]; [2],6.7 µM
same,ACC Mean.Spheroid.Burst.Duration,[1],7.9 µM
same,ACC Mean.Spheroid.Burst.ISI,[1],4.8 µM
same,ACC Mean.Spheroid.Burst.Peak.Firing.Rate,[1],6.6 µM
same,ACC Mean.Spheroid.Firing.Rate,[1],11 µM
same,ACC Mean.Spheroid.IBI,[1],50 µM
same,ACC Mean.Spheroid.Nonburst.ISI,[1],55 µM
same,ACC Mean.Spheroid.Spikes.per.Burst,[1],17 µM
same,ACC Mean.Spheroid.Spikes.per.Burst.per.Electrode,[1],8.2 µM
same,ACC Spheroid.Burst.Frequency,[1],8.5 µM
same,ACC Spheroid.Spike.Amplitude.90th.Percentile,[1],9.5 µM
same,Top Mean.Spheroid.Burst.Duration,[1]; [3],−93
same,Top Mean.Spheroid.Burst.ISI,[1]; [3],−93
same,Top Mean.Spheroid.Burst.Peak.Firing.Rate,[1]; [3],−93
same,Top Mean.Spheroid.Firing.Rate,[1]; [3],−92
same,Top Mean.Spheroid.IBI,[1]; [3],−81
same,Top Mean.Spheroid.Nonburst.ISI,[1]; [3],−74
same,Top Mean.Spheroid.Spikes.per.Burst,[1]; [3],−93
same,Top Mean.Spheroid.Spikes.per.Burst.per.Electrode,[1]; [3],−92
same,Top Spheroid.Burst.Frequency,[1]; [3],−95
same,Top Spheroid.Spike.Amplitude.90th.Percentile,[1]; [3],−22
same,Hits,[1],8
CC(C)(c1ccc(O)cc1)c1ccc(O)cc1 [Bisphenol A],hitc CCTE_Shafer_MEA_dev_LDH,2D rat cortical cultures,0
same,Difference of minimum potency between BrainSphere MEA assay and rNFA,[1],≤ 0.5 log10 µM
same,hitc Mean.Spheroid.Burst.Duration,[1],1
same,hitc Mean.Spheroid.Burst.ISI,[1],1
same,hitc Mean.Spheroid.Burst.Peak.Firing.Rate,[1],1
same,hitc Mean.Spheroid.Firing.Rate,[1],1
same,hitc Mean.Spheroid.IBI,[1],1
same,hitc Mean.Spheroid.Nonburst.ISI,[1],0
same,hitc Mean.Spheroid.Spikes.per.Burst,[1],1
same,hitc Mean.Spheroid.Spikes.per.Burst.per.Electrode,[1],1
same,hitc Spheroid.Burst.Frequency,[1],1
same,hitc Spheroid.Spike.Amplitude.90th.Percentile,[1],1
same,pEC50,"[1]; Homo sapiens, 5th percentile across active AC50 values per chemical, read-out: Minimum potency",4.54
same,EC (benchmark response 1.349 SD),"[1]; Homo sapiens, tcplfit2 BMD at benchmark response (1.349*SD of baseline controls), read-out: BMD Mean.Spheroid.Burst.ISI",27 µM
same,EC (benchmark response 1.349 SD),"[1]; Homo sapiens, tcplfit2 BMD at benchmark response (1.349*SD of baseline controls), read-out: BMD Mean.Spheroid.Nonburst.ISI",50 µM
same,AC50,"[1]; Homo sapiens, read-out: ac50 Mean.Spheroid.Burst.Duration",29.4 µM
same,AC50,"[1]; Homo sapiens, read-out: ac50 Mean.Spheroid.Burst.ISI",29.2 µM
same,AC50,"[1]; Homo sapiens, read-out: ac50 Mean.Spheroid.Burst.Peak.Firing.Rate",30 µM
same,AC50,"[1]; Homo sapiens, read-out: ac50 Mean.Spheroid.Firing.Rate",29 µM
same,AC50,"[1]; Homo sapiens, read-out: ac50 Mean.Spheroid.IBI",45 µM
same,AC50,"[1]; Homo sapiens, read-out: ac50 Mean.Spheroid.Nonburst.ISI",45 µM
same,AC50,"[1]; Homo sapiens, read-out: ac50 Mean.Spheroid.Spikes.per.Burst",45 µM
same,AC50,"[1]; Homo sapiens, read-out: ac50 Mean.Spheroid.Spikes.per.Burst.per.Electrode",29.1 µM
same,AC50,"[1]; Homo sapiens, read-out: ac50 Spheroid.Burst.Frequency",45 µM
same,AC50,"[1]; Homo sapiens, read-out: ac50 Spheroid.Spike.Amplitude.90th.Percentile",45 µM
same,pEC50,"[1]; Homo sapiens, mean across active AC50 values per chemical, read-out: Mean potency",4.44
same,AC50,[1]; read-out: ac50 Mean.Spheroid.Burst.Peak.Firing.Rate,29.6 µM
same,AC50,[1]; read-out: ac50 Mean.Spheroid.Firing.Rate,29.3 µM
same,Percent active,[1],90%
same,BMD Mean.Spheroid.Burst.Duration,[1]; [2],28 µM
same,BMD Mean.Spheroid.Burst.Peak.Firing.Rate,[1]; [2],28 µM
same,BMD Mean.Spheroid.Firing.Rate,[1]; [2],30 µM
same,BMD Mean.Spheroid.IBI,[1]; [2],31 µM
same,BMD Mean.Spheroid.Spikes.per.Burst,[1]; [2],40 µM
same,BMD Mean.Spheroid.Spikes.per.Burst.per.Electrode,[1]; [2],28 µM
same,BMD Spheroid.Burst.Frequency,[1]; [2],47 µM
same,BMD Spheroid.Spike.Amplitude.90th.Percentile,[1]; [2],33 µM
same,ACC Mean.Spheroid.Burst.Duration,[1],27 µM
same,ACC Mean.Spheroid.Burst.ISI,[1],26 µM
same,ACC Mean.Spheroid.Burst.Peak.Firing.Rate,[1],28 µM
same,ACC Mean.Spheroid.Firing.Rate,[1],31 µM
same,ACC Mean.Spheroid.IBI,[1],44 µM
same,ACC Mean.Spheroid.Nonburst.ISI,[1],58 µM
same,ACC Mean.Spheroid.Spikes.per.Burst,[1],50 µM
same,ACC Mean.Spheroid.Spikes.per.Burst.per.Electrode,[1],29 µM
same,ACC Spheroid.Burst.Frequency,[1],42 µM
same,ACC Spheroid.Spike.Amplitude.90th.Percentile,[1],44 µM
same,Hits,[1],9
